The source of these data is patent publication US7879795B2, “Enhancement of tigecycline potency using efflux pump inhibitors” (Mpex Pharmaceuticals, Inc., priority 2004, dated 2011).

Data set [1] is described as follows: Stability in human kidney tissue preparations. The class given is in vitro ADME. The settings on record: in words. An excerpt: The pattern of in vitro stability of compound 3 (stable in serum but unstable in tissues) observed in rodents was also reproduced using human kidney tissues or serum. FIG. 7 compares the in vitro stability of compounds 1 and 3 in human kidney tissue preparations.
FIG. 8 depicts formation of the metabolite, compound 67, in human kidney tissue. Concomitant with the disappearance of compound 3, generation of the expected metabolite of the presumed intralysosomal degradation, compound 67, was detected using human kidney.

In a further data set the test system is PAM 1020, wt. Kind of data set: Tigecycline potentiation checkerboard assay, PAM 1020. Conditions: PAM 1020. The class given is cell-based, P. aeruginosa. Further details: Tigecycline MIC in the presence of Compound 21: unit not given here. The procedure:
(§1) The ability of compound 21 to increase susceptibility to tigecycline was also assessed. The tigecycline potentiating activity of compound 21 was assessed by the checkerboard assay (Antimicrobial Combinations, Antibiotics in Laboratory Medicine, ed. Victor Lorian, M.D., Fourth edition, 1996, pp 333-338, which is incorporated herein by reference in its entirety) using a broth micro-dilution method performed as recommended by the CSLI (Clinical and Laboratory Standards Institute, formerly NCCLS) guidelines (National Committee for Clinical Laboratory Standards 2003. Methods for Dilution Antimicrobial Susceptibility Tests for Bacteria That Grow Aerobically—Sixth Edition; Approved Standard. NCCLS Document M7-A6, Vol 20 No. 2). In this assay, multiple dilutions of the two drugs, compound 21 and tigecycline, were tested alone and in combination, at concentrations equal to, above and below their respective minimal inhibitory concentrations (MICs). […] The stock solution was further diluted in Mueller Hinton Broth (MHB). Stock solutions were stored at −80° C.
(§2) The checkerboard assay was performed in microtiter plates. Tigecycline was diluted in the x axis, each column containing a single concentration of tigecycline. Compound 21 was diluted in the y axis, each row containing an equal concentration of the EPI. […] The assay was performed in MHB with a final bacterial inoculum of 5×10^5 CFU/ml (from an early-log phase culture). The microtiter plates were incubated for 20 hours at 35° C. and then read using a microtiter plate reader (Molecular Devices) at 650 nm, as well as by visual observation using a microtiter plate-reading mirror.

For data set [2], the system named is PAM 1032, nalB, MexAB-OprM over-expressed. Kind of data set: microbe, parasite or virus in culture. Type of data set: cell-based, P. aeruginosa. Further details: Tigecycline MIC in the presence of Compound 21: unit not given here. Conditions: PAM 1032. As to the method:
as §1, §2
P. aeruginosa strain PAM 1032 was grown in Mueller-Hinton Broth (MHB) at 35° C. under constant aeration. After 20 hours, the inoculum was sub-cultured into fresh MHB and allowed to regrow at 35° C., under constant aeration, for 4 hours. The inoculum was adjusted to ca. 4×10^7 CFU/ml by correlation of absorbance at 600 nm with predetermined plate counts. The inoculum was then diluted 2-fold in 14% hog-gastric mucin (Sigma, St. Louis, Mo.) for a final inoculum concentration of 2×10^7 CFU/ml. […] At 0 and 2 hours following infection, tigecycline was administered by the subcutaneous route and compound 21 was administered by the intraperitoneal route.

Data set [3] has as its system PAM 1753, MexEF-OprN over-expressed. Kind of data set: Tigecycline potentiation checkerboard assay, PAM 1753. The settings on record: PAM 1753. The class given is cell-based, P. aeruginosa. Further details: Tigecycline MIC in the presence of Compound 21: unit not given here. As to the method: as §1, §2
Data set [4] deals with PAM 1626, Four pumps non-functional. Kind of data set: Tigecycline potentiation checkerboard assay, PAM 1626. Type of data set: cell-based, P. aeruginosa. Further details: Tigecycline MIC in the presence of Compound 21: unit not given here. Conditions: PAM 1626. The procedure: as §1, §2
In another data set the test system is Enterobacter cloacae 25. Kind of data set: Antibiotic MIC with fixed concentration of compound 21, Enterobacter cloacae 25. Type of data set: cell-based.
The test system of another data set is Klebsiella pneumonia 73. Kind of data set: Antibiotic MIC with fixed concentration of compound 21, Klebsiella pneumonia 73. The class given is cell-based. As to the method: (§3) To further characterize the clinical potential of tigecycline/EPI combinations, the microbiological activity of tigecycline in combination with compound 21 was investigated using clinical isolates of P. aeruginosa and other gram-negative bacteria. In several experiments, described below, the impact of a fixed concentration of compound 21 (2.5 μg/ml) on susceptibility to tigecycline was determined.
(§4) The impact of compound 21 on the activity of tigecycline against representative members of Enterobacteriacaea was also tested.

The next data set has as its system Klebsiella pneumonia 79. Kind of data set: Antibiotic MIC with fixed concentration of compound 21, Klebsiella pneumonia 79. The class given is cell-based. The procedure: as §3, §4
For the next data set, the system named is Citrobacter freundii 13. Kind of data set: Antibiotic MIC with fixed concentration of compound 21, Citrobacter freundii 13. Type of data set: cell-based. The procedure:
as §3, §4

Data set [5] in a line: Solubility in water (stock solutions). Conditions: stock solutions 10 mg/ml.
Where [6] appears, read: azithromycin MIC with compound 21.
Where [7] appears, read: levofloxacin MIC with compound 21 at […].
The mark [8] stands for this setting: tigecycline MIC with compound 21 at […].

As to `NCCC[C@H](N)C(=O)N[C@H](CCc1ccccc1)C(=O)Nc1cnc2ccccc2c1` [Compound 3, 2-(S),5-Diamino-pentanoic acid [3-phenyl-1-(R)-(quinolin-3-ylcarbamoyl)-propyl]-amide], in data set [1], the “degradation in homogenates prepared from frozen cadaverous human kidney” value is “Time-dependent degradation” and the “pH dependence of degradation in human kidney homogenates” value is recorded as “stronger at lower pH”.

Regarding `NCCC[C@H](N)C(=O)N[C@H](Cc1ccc(C(F)(F)F)cc1)C(=O)Nc1cnc2ccccc2c1` [Compound 21, 2-(S),5-Diamino-pentanoic acid [1-(R)-(quinolin-3-ylcarbamoyl)-2-(4-trifluoromethyl-phenyl)-ethyl]amide], the “Tigecycline MIC in the presence of Compound 21” value (“Tigecycline MIC in the presence” for short) was determined as 2 in the data set with PAM 1020, wt (Compound 21 0.625 μg/ml); 1 in the data set on PAM 1020, wt (Compound 21 1.25 μg/ml); 0.25 in the data set with PAM 1020, wt (Compound 21 5 μg/ml); 0.25 in the data set on PAM 1020, wt (Compound 21 10 μg/ml); 0.25 in the data set on PAM 1020, wt (Compound 21 20 μg/ml); 0.25 in the data set with PAM 1020, wt (Compound 21 40 μg/ml). The “Tigecycline MIC in the presence” value in the data set on PAM 1020, wt (Compound 21 […]) is on record as 0.5; in data set [2] (Compound 21 0.625 μg/ml), 4; in [2] (Compound 21 1.25 μg/ml) it was 2; in data set [2] (Compound 21 5 μg/ml) it was 0.5; in data set [2] (Compound 21 10 μg/ml), 0.5; in data set [2] (Compound 21 20 μg/ml) it was 0.5. Also, the “Tigecycline MIC in the presence” value came to 0.5 in data set [2] (Compound 21 40 μg/ml); 0.5 in data set [2] (Compound 21 […]); 1 in [3] (Compound 21 0.625 μg/ml); 1 in data set [3] (Compound 21 1.25 μg/ml); 0.25 in data set [3] (Compound 21 5 μg/ml); 0.25 in data set [3] (Compound 21 10 μg/ml). Besides, the “Tigecycline MIC in the presence” value in data set [3] (Compound 21 20 μg/ml), in data set [3] (Compound 21 40 μg/ml), in data set [3] (Compound 21 […]), in data set [4] (Compound 21 0.625 μg/ml), in data set [4] (Compound 21 1.25 μg/ml) and in data set [4] (Compound 21 5 μg/ml) was 0.25 throughout. Moreover, the “Tigecycline MIC in the presence” value in data set [4] (Compound 21 10 μg/ml) was determined as 0.25; in data set [4] (Compound 21 20 μg/ml) it was 0.5; in data set [4] (Compound 21 […]), 0.25. The “Azi + EPI (MIC)” value with Enterobacter cloacae 25 (setting [6]) is “≦0.125”; in the data set with Klebsiella pneumonia 73 (setting [6]), “≦0.125”; in the data set on Klebsiella pneumonia 79 (setting [6]), 0.25; in the data set with Citrobacter freundii 13 (setting [6]) it was “≦0.125”. Also, the “Levo + EPI at […] (MIC)” value in the data set on Enterobacter cloacae 25 (setting [7]) turned out to be 0.5; in the data set on Klebsiella pneumonia 73 (setting [7]), 4; with Klebsiella pneumonia 79 (setting [7]), 4; in the data set on Citrobacter freundii 13 (setting [7]), 8. Further, the “Tig + EPI at […] (MIC)” value worked out at 0.5 in the data set with Enterobacter cloacae 25 (setting [8]), 0.125 in the data set on Klebsiella pneumonia 73 (setting [8]), 0.25 with Klebsiella pneumonia 79 (setting [8]) and 0.125 in the data set on Citrobacter freundii 13 (setting [8]). For the same compound, the solubility in water entry in data set [5] is given as “readily soluble in water”.
